These are literature values, as cited in US6323203A, “Composition and method for treating diabetes” (Beyer; Camille F., priority 2000, dated 2001).

The test system of series [1] is nicotinic acid vasomotor and antilipolytic effect. As to conditions: cited from earlier work; for effect on vasomotor and antilipolytic effect of nicotinic acid: prior administration of the prostaglandin synthesis inhibitor.
For series [2] the following is noted: oral glucose tolerance test; cited from earlier work.
For series [3] the following is noted: in vivo; cited from earlier work.

For the compound `O=C(O)c1cccnc1` [nicotinic acid], in series [1] (Molnar 1964), the use in diabetics result was “contraindicated for diabetics”. In addition, in series [1] (in vivo), the “effect on triglyceride hydrolysis to FFA and glycerol” value is “inhibits triglyceride hydrolysis to FFA and glycerol”. Besides, the “cutaneous vasomotor reaction of nicotinic acid, consequence in patient care” value in series [1] (nicotinic acid prescribed in patient care) is listed as “sufficiently undesirable as to be the principal cause for lack of compliance”. Besides, in series [1] (nicotinic acid), the “effect on blush area” value is “transiently stimulate”; the “effect on plasma concentrations of nonesterified fatty acids” value is “reduce”; the “onset of cutaneous reaction relative to peak serum concentration” value was “the onset preceded peak serum PZA concentrations, as is the case also for the cutaneous reactions associated with nicotinic acid”.
Take `CC(=O)Oc1ccccc1C(=O)O` [aspirin]: in series [1], the “effect on vasomotor and antilipolytic effect of nicotinic acid” value was “abolish the vasomotor, but not the antilipolytic effect of nicotinic acid”.
As for `NS(=O)(=O)c1cc2c(cc1Cl)NCNS2(=O)=O` [hydrochlorothiazide], the “effect on serum glucose and insulin” value in series [2] was “increased serum glucose and insulin concentrations”. Also, the effect on potassium entry in series [3] is on record as “kaliuresis”.
For `COc1ccc2c(c1)c(CC(=O)O)c(C)n2C(=O)c1ccc(Cl)cc1` [indomethacin], in series [1], the “effect on vasomotor and antilipolytic effect of nicotinic acid” value was “abolish the vasomotor, but not the antilipolytic effect of nicotinic acid”.
